According to paper PMC12446627, “Novel Thioredoxin reductase 1 inhibitor BS1801 relieves treatment resistance and triggers endoplasmic reticulum stress by elevating reactive oxygen species in glioma” (Redox Biology, 2025):
Where two headings read alike, the source gives them in different places.

How the values were obtained:
[1] = target: T1, Thioredoxin reductase 1 (TrxR1) (Homo sapiens, UniProt Q16881); test: biochemical
T1 construct: gene TXNRD1

[2] = target: T1, Thioredoxin reductase 1 (TrxR1)

T1 sequence (Q16881 whole entry): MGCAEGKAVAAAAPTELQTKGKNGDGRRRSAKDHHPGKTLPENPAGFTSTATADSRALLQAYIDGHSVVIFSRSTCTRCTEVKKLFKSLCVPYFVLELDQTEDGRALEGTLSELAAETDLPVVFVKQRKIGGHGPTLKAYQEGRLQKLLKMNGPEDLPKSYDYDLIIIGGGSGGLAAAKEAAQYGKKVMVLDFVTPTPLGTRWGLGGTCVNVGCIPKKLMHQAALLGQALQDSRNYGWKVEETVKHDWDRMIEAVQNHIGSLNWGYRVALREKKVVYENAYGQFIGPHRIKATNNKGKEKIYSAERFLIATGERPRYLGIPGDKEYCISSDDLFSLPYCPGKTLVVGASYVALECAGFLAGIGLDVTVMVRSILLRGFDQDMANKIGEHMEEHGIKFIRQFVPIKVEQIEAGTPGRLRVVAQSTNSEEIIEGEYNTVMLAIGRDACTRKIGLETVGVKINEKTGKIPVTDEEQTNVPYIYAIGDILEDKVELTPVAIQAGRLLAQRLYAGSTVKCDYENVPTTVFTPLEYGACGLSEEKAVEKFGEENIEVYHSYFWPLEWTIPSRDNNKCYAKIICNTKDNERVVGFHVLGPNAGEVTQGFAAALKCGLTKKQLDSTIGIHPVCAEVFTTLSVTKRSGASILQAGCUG

Structure (SMILES)	Kd [1] [µM]	Kd [2] [µM]
O=c1c2ccccc2[se]n1CCCCn1[se]c2ccccc2c1=O [BS1801, 2,2'-(butane-1,4-diyl)bis(benzo[d] [1,2]selenazol-3(2H)-one)]	2.44	–
CC[P](CC)(CC)=[Au][S][C@@H]1O[C@H](COC(C)=O)[C@@H](OC(C)=O)[C@H](OC(C)=O)[C@H]1OC(C)=O [auranofin]	–	5.07
